EC50 data for 17 compounds are collected here from patent publication US12441730B2, “PRMT5 inhibitors” (Merck Sharp & Dohme LLC, priority 2019, dated 2025).

Assay [1] has as its system symmetric dimethylation of arginine (SDMA) of PRMT5 substrates in MCF-7 cells. The assay is described as follows: PRMT5 Cell Target Engagement (TE) Assay. It counts as cell-based. To be noted: 3 days treatment, SDMA high content imaging. The text has this: PRMT5 Cell Target Engagement (TE) Assay
The PRMT5 TE assay is a biomarker assay for identifying compounds that inhibit symmetric dimethylation of arginine (SDMA) of PRMT5 substrates. The following substrates have been reported for PRMT5: histone H2A and H4 R3, Histone H3 R2, Histone H3 R8, spliceosome Sm proteins, ribosomal protein RPS10, p53, FEN1, nucleoplasmin, nucleolin, EGFR and EBNA. The assay focuses on detecting symmetrically dimethylated nuclear proteins using high content imaging technology. Detection of the expression of symmetrically dimethylated nuclear proteins is through a mixture of primary rabbit monoclonal antibodies to SDMA (CST 13222), which in turn recognized by an Alexafluor 488 dye-conjugated anti-rabbit IgG secondary antibody. The IN Cell Analyzer 2200 or Opera-Phenix measures nuclear Alexafluor 488 fluorescent dye intensity that is directly related to the level of expression of symmetrically dimethylated nuclear proteins at the single cell level. Nuclear AF488 dye intensities are compared to the mean value for DMSO treated cells (MIN) to report percent of inhibition for each compound-treated well.
In this assay, the cell potency (EC50) of each compound was determined from a ten point (1:3 serial dilution; top compound concentration of 10000 nM) titration curve using the following outlined procedure. Each well of a BD falcon collagen coated black/clear bottom 384-well plate was seeded with 4000 MCF-7 cells in 30 μl media and allowed to attach for 5 h. Media is ATCC-formulated Eagle's Minimum Essential Medium, Catalog No. 30-2003. To make the complete growth medium, the following components were added to the base medium: 0.01 mg/mL human recombinant insulin; fetal bovine serum to a final concentration of 10%. Additional 30 μl of media containing 2× compounds were added to each well. Cells were treated for 3 days in 37° C. CO2 incubator. On day 3, cells were fixed with Cytofix, permeabilized with 0.4% Triton-X-100/Cytofix, and washed with D-PBS without Ca/Mg. Cells were blocked with Licor Odessey blocking reagent for 1 h at room temperature, followed by incubation with anti-SDMA (1:1000) antibody at 4° C. overnight. 1° antibody was removed, followed by three washings with DPBS without Ca/Mg and 0.05% Tween20. Hoechst (5 μg/mL), Cell Mask deep stain (1:2000) and Alexa488-conjugated goat anti-rabbit IgG (2 μg/mL) was added for 1 h at room temperature. A final washing step (three washes) was performed before sealing plate for imaging on In Cell Analyzer 2200 or Opera-Phenix. Images from analyzer were uploaded to Columbus (at WP or BOS) for image analysis. IC50 values were determined by 4 parameters robust fit of percent fluorescence units vs. (Log10) compound concentrations.

The target in assay [2] is T1, Full-length (FL)-PRMT5-MEP50 enzyme complex (Homo sapiens, UniProt O14744).
T1 construct: Full-length (FL)-PRMT5-MEP50 enzyme complex (recombinant proteins from baculovirus-transfected Sf21 cells: FL-PRMT5; MW=73837 kDa and FL-MEP50; MW=38614); made in house; host or cells: baculovirus-transfected Sf21 cells
T1 sequence (O14744 whole entry): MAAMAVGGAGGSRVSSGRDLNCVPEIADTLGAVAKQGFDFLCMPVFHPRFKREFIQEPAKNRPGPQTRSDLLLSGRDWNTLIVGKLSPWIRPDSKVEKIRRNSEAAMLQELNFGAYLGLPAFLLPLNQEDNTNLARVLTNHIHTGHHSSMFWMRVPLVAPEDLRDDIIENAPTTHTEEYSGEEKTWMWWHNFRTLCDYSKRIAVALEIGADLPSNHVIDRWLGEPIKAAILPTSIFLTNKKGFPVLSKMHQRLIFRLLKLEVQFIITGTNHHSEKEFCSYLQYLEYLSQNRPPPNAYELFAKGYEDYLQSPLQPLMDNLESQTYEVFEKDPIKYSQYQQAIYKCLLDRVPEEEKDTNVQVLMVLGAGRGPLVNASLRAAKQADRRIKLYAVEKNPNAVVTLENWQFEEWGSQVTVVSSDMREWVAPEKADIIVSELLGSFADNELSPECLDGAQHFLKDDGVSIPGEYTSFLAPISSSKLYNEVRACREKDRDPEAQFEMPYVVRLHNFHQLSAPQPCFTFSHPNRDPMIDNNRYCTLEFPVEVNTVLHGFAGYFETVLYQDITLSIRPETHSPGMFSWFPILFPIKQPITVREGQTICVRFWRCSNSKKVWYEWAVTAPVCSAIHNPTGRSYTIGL
T1 sequence (Q9BQA1 whole entry partner): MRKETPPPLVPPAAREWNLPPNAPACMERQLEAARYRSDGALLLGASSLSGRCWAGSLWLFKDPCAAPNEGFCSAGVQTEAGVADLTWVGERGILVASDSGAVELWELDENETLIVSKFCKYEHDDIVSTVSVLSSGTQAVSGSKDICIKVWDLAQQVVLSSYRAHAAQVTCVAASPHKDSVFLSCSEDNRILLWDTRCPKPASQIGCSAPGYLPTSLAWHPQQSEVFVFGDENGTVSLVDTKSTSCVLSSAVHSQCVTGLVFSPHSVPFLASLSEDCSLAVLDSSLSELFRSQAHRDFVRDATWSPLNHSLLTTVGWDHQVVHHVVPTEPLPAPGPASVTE
The assay is described as follows: PRMT5-MEP50 Enzyme Methylation Assay (Version A). It counts as biochemical. As for the experimental part:
PRMT5-MEP50 Enzyme Methylation Assay (Version A)
PRMT5-MEP50 biochemical assay is a direct measurement of the methylation activity of the enzyme complex on a short peptide substrate derived from the N-terminus of H4 histone. Methylation experiment was performed with recombinant PRMT5-MEP50 protein complex. The assessment of inhibitory effect of small molecules was measured by the effectiveness of the compounds to inhibit this reaction (EC50).
In this assay, the potency (EC50) of each compound was determined from a twenty-point (1:2 serial dilution; top compound concentration of 100000 nM) titration curve using the following outlined procedure. To each well of a white ProxiPlus 384 well-plate, 100 nL of compound (1% DMSO in final assay volume of 10 μL) was dispensed, followed by the addition of 8 μL of 1× assay buffer (50 mM Bicine pH 8.0, 1 mM DTT, 0.004% Tween20, 0.01% BSA) containing 1.25 nM of Full-length (FL)-PRMT5-MEP50 enzyme complex (recombinant proteins from baculovirus-transfected Sf21 cells: FL-PRMT5; MW=[…] and FL-MEP50; MW=38614) and 1 μL of 150 μM S-(5′-Adenosyl)-L-Methionine Chloride (SAM). A plate were sealed and placed in a 37° C. humidified chamber for a 60 minutes pre-incubation with compound. Subsequently, each reaction was initiated by the addition of 1 μL 1× assay buffer containing 750 nM biotinylated H4R3(Me1) peptide. The final reaction in each well of 10 μL consists of 1.0 nM PRMT5-MEP50, 75 nM biotinylated-peptide, and 15 μM SAM. Methylation reactions were allowed to proceed for 150 minutes in a sealed plate at 37° C. Reactions were immediately quenched by the addition of 1 μL of 5% formic acid. A plate was then frozen and shipped to SAMDI™ Tech Inc. to determine the percent conversion from H4R3(Me1) to H4R3(Me2). Dose-response curves were generated by plotting percent effect (% product conversion; Y-axis) vs. Log 10 compound concentrations (X-axis). EC50 values were determined by non-linear regression according to models for either sigmoidal (4 parameters) or biphasic (7 parameters) dose-response curves.

The mark [3] stands for this setting: second value of 7 parameter biphasic fit, read-out: Enzyme Methylation Assay Version A (EC50 2).
Where [4] appears, read: single EC50 = 4 parameter single site sigmoidal fit, EC50 1 = first value of 7 parameter biphasic fit, read-out: Enzyme Methylation Assay Version A (EC50 or EC50 1).

Where two headings read alike, the source gives them in different places.

As to `COC(C)c1ccc2nc(C(=O)N3CC[C@]4(Cc5ccccc5CN4)[C@H](O)C3)cn2c1` (single isomer, unassigned) [Example 22, ((3R,3’R)-3′-hydroxy-1,4-dihydro-2H-spiro[isoquinoline-3,4′-piperidin]-1′-yl)(6-((S or R)-1-methoxyethyl)imidazo[1,2-a]pyridin-2-yl)methanone], the EC50 was found to be 16.8 nM in assay [1], 439 nM in assay [2] (setting [3]) and 0.674 nM in assay [2] (setting [4]).
For `COC(C)c1ccc2nc(C(=O)N3CC[C@]4(Cc5ccccc5CN4)[C@H](O)C3)cn2c1` (single isomer, unassigned) [Example 23, ((3R,3’R)-3′-hydroxy-1,4-dihydro-2H-spiro[isoquinoline-3,4′-piperidin]-1-yl)(6-((R or S)-1-methoxyethyl)imidazo[1,2-a]pyridin-2-yl)methanone] the same measures were 46.4 nM, 851 nM and 1.8 nM.
Consider `O=C(c1cn2cc(Br)cc(C(O)C(F)(F)F)c2n1)N1CC[C@]2(Cc3ccccc3CN2)[C@H](O)C1` (single isomer, unassigned) [Example 30, (6-bromo-8-((R or S)-2,2,2-trifluoro-1-hydroxyethyl)imidazo[1,2-a]pyridin-2-yl)((3R,3’R)-3′-hydroxy-1,4-dihydro-2H-spiro[isoquinoline-3,4′-piperidin]-1′-yl)methanone], for which the EC50 in assay [1] (Homo sapiens, MCF7, 72 h) was found to be 3.62 nM; in assay [2] (setting [3]), 99.4 nM; in assay [2] (setting [4]), 0.584 nM.
Regarding `O=C(c1cn2cc(Br)cc(C(O)C(F)(F)F)c2n1)N1CC[C@]2(Cc3ccccc3CN2)[C@H](O)C1` (single isomer, unassigned) [Example 31, (6-bromo-8-((S or R)-2,2,2-trifluoro-1-hydroxyethyl)imidazo[1,2-a]pyridin-2-yl)((3R,3’R)-3′-hydroxy-1,4-dihydro-2H-spiro[isoquinoline-3,4′-piperidin]-1′-yl)methanone], the EC50 came to 4.49 nM in assay [1], 72.4 nM in assay [2] (setting [3]) and 0.215 nM in assay [2] (setting [4]).
In the case of `CC(O)c1cc(Br)cn2cc(C(=O)N3CC[C@]4(Cc5ccccc5CN4)[C@H](O)C3)nc12` (single isomer, unassigned) [Example 32, (6-bromo-8-((R or S)-1-hydroxyethyl)imidazo[1,2-a]pyridin-2-yl)((3R,3’R)-3′-hydroxy-1,4-dihydro-2H-spiro[isoquinoline-3,4′-piperidin]-1′-yl)methanone], the EC50 in assay [1] (Homo sapiens, MCF7, 72 h) was found to be 5.15 nM; in assay [2] (setting [3]) it was 282 nM; in assay [2] (setting [4]), 0.844 nM.
Regarding `CC(O)c1cc(Br)cn2cc(C(=O)N3CC[C@]4(Cc5ccccc5CN4)[C@H](O)C3)nc12` (single isomer, unassigned) [Example 33, (6-bromo-8-((S or R)-1-hydroxyethyl)imidazo[1,2-a]pyridin-2-yl)((3R,3’R)-3′-hydroxy-1,4-dihydro-2H-spiro[isoquinoline-3,4′-piperidin]-1′-yl)methanone], the EC50 in assay [1] amounted to 3.71 nM; in assay [2] (setting [3]) it was 215 nM; in assay [2] (setting [4]), 0.565 nM.
For `COC(C)c1cc(Br)c2nc(C(=O)N3CC[C@]4(Cc5ccccc5CN4)[C@H](O)C3)cn2c1` (single isomer, unassigned) [Example 60], the EC50 turned out to be 7.49 nM in assay [1], 271 nM in assay [2] (setting [3]) and 0.456 nM in assay [2] (setting [4]).
With `COC(C)c1cc(Br)c2nc(C(=O)N3CC[C@]4(Cc5ccccc5CN4)[C@H](O)C3)cn2c1` (single isomer, unassigned) [Example 61], the EC50 is 16.9 nM in assay [1], 422 nM in assay [2] (setting [3]) and 0.669 nM in assay [2] (setting [4]).
For `CC1CC1c1cnc2nc(C(=O)N3CC[C@]4(Cc5ccccc5CN4)[C@H](O)C3)cn2c1` (single isomer, unassigned) [Example 74], the EC50 came to 8.37 nM in assay [1] and 13.9 nM in assay [2] (setting [4]).
For the compound `O=C(c1cn2cc(C3CC3(F)F)cnc2n1)N1CC[C@]2(Cc3ccccc3CN2)[C@H](O)C1` (single isomer, unassigned) [Example 75], the EC50 in assay [1] (Homo sapiens, MCF7, 72 h) amounted to 27.5 nM; in assay [2] (setting [3]), 112 nM; in assay [2] (setting [4]), 1.66 nM.
For the compound `CC1CC1c1cnc2nc(C(=O)N3CC[C@]4(Cc5ccccc5CN4)[C@H](O)C3)cn2c1` (single isomer, unassigned) [Example 76], the figures for the EC50 in assay [1], in assay [2] (setting [3]) and in assay [2] (setting [4]) were 4.02 nM, 73.3 nM and 0.983 nM, respectively.
Regarding `O=C(c1cn2cc(C3CC3(F)F)cnc2n1)N1CC[C@]2(Cc3ccccc3CN2)[C@H](O)C1` (single isomer, unassigned) [Example 77], the results for the EC50 in assay [1], in assay [2] (setting [3]) and in assay [2] (setting [4]) were 23.8 nM, 108 nM and 1.46 nM, respectively.
With `COC(C)c1cc(C(F)F)cn2cc(C(=O)N3CC[C@]4(Cc5ccccc5CN4)[C@H](O)C3)nc12` (single isomer, unassigned) [Example 80], the half-maximal effective concentration (EC50) in assay [1] is 8.38 nM; in assay [2] (setting [4]) it was 1.25 nM.
For `COC(C)c1cc(C(F)F)cn2cc(C(=O)N3CC[C@]4(Cc5ccccc5CN4)[C@H](O)C3)nc12` (single isomer, unassigned) [Example 81] the same measures were 25 nM and 3.81 nM.
Regarding `N#CC1(c2cnc3nc(C(=O)N4CC[C@]5(Cc6ccccc6CN5)[C@H](O)C4)cn3c2)CC12CC2` (single isomer, unassigned) [Example 82], the EC50 in assay [1] was 7.75 nM; in assay [2] (setting [4]), 0.746 nM.
Consider `N#CC1(c2cnc3nc(C(=O)N4CC[C@]5(Cc6ccccc6CN5)[C@H](O)C4)cn3c2)CC12CC2` (single isomer, unassigned) [Example 83], for which the EC50 in assay [1] came out at 90.8 nM; in assay [2] (setting [3]) it was 3160 nM; in assay [2] (setting [4]), 3.28 nM.
As to `CN1CCC(Oc2nc(Br)cn3cc(C(=O)N4CC[C@]5(Cc6ccccc6CN5)[C@H](O)C4)nc23)C1=O` (single isomer, unassigned) [Example 94, (R or S)-3-((6-bromo-2-((3R,3′R)-3′-hydroxy-1,4-dihydro-2H-spiro[isoquinoline-3,4′-piperidine]-1′-carbonyl)imidazo[1,2-a]pyrazin-8-yl)oxy)-1-methylpyrrolidin-2-one], the EC50 in assay [1] (Homo sapiens, MCF7, 72 h) was 19.7 nM; in assay [2] (setting [3]), 316 nM; in assay [2] (setting [4]), 0.826 nM.
